Assay results taken from patent US9884818B2, “Sulphamoylpyrrolamide derivatives and the use thereof as medicaments for the treatment of hepatitis B” (Janssen Sciences Ireland UC, priority 2013, dated 2018).

Columns and labels:
HBV [1] = assay: Anti-HBV activity, HepG2.2.15 stable transfected cell line, HBV DNA from secreted virions by realtime PCR; type: cell-based; settings: Hepatitis B virus, HepG2.2.15, 144 h, HepG2.2.15 cells, 6 days of treatment, HBV DNA from secreted virions; read-out: HepG2 2.15 EC50
HBV [2] = assay: Anti-HBV activity, HepG2.117 inducibly HBV producing cell line (Tet-off), intracellular HBV DNA by realtime PCR; type: cell-based; settings: Hepatitis B virus, HepG2.117, 72 h, HepG2.117 cells, 3 days of treatment, intracellular HBV DNA; read-out: HepG2 117 EC50
[3] = Cytotoxicity in HepG2 cells, Resazurin viability assay; settings: human, HepG2 cells, HepG2 4 days CC50 (μM), incubated for 4 days, Resazurin assay

Structure (SMILES)	EC50 (HBV [1]) [nM]	EC50 (HBV [2]) [nM]	CC50 at 4 days [3] [µM]
Cn1cc(S(=O)(=O)NC2(C)COC2)cc1C(=O)Nc1ccc(F)c(Cl)c1F [Compound 121, N-(3-Chloro-2,4-difluorophenyl)-1-methyl-4-[(3-methyloxetan-3-yl)sulfamoyl]-1H-pyrrole-2-carboxamide]	50	40	> 25
Cc1c(S(=O)(=O)NC2(C)COC2)cn(C)c1C(=O)Nc1ccc(F)c(Cl)c1F [Compound 243, N-(3-Chloro-2,4-difluorophenyl)-1,3-dimethyl-4-[(3-methyloxetan-3-yl)sulfamoyl]-1H-pyrrole-2-carboxamide]	110	100	> 25
C[C@H](NS(=O)(=O)c1cc(C(=O)Nc2ccc(F)c(Br)c2)n(C)c1)C(F)(F)F [Compound 101, N-(3-Bromo-4-fluorophenyl)-1-methyl-4-{[(1S)-2,2,2-trifluoro-1-methylethyl]sulfamoyl}-1H-pyrrole-2-carboxamide]	30	30	> 25
C[C@@H](NS(=O)(=O)c1cc(C(=O)Nc2cccc(C(F)(F)F)c2F)n(C)c1)C(F)(F)F [Compound 159, N-[2-Fluoro-3-(trifluoromethyl)phenyl]-1-methyl-4-{[(1R)-2,2,2-trifluoro-1-methylethyl]sulfamoyl}-1H-pyrrole-2-carboxamide]	90	810	> 25
Cc1c(F)ccc(NC(=O)c2cc(S(=O)(=O)NC3(C(F)(F)F)CC3)cn2C)c1F [Compound 117, N-(2,4-Difluoro-3-methylphenyl)-1-methyl-4-{[1-(trifluoromethyl)-cyclopropyl]sulfamoyl}-1H-pyrrole-2-carboxamide]	7	10	> 25
Cc1cc(NC(=O)c2cc(S(=O)(=O)NC(C)(C)C)cn2C)cc(F)c1F [Compound 38, 4-(tert-butylsulfamoyl)-N-(3,4-difluoro-5-methyl-phenyl)-1-methyl-pyrrole-2-carboxamide]	50	20	> 25
C[C@H](CO)NS(=O)(=O)c1cc(C(=O)Nc2ccc(F)c(F)c2)n(C)c1 [Compound 24, N-(3,4-difluorophenyl)-4-[[(1R)-2-hydroxy-1-methyl-ethyl]sulfamoyl]-1-methyl-pyrrole-2-carboxamide]	200	300	> 25
Cc1c(S(=O)(=O)N[C@H](C)C(F)(F)F)cn(C)c1C(=O)Nc1cc(F)c(F)c(Cl)c1 [Compound 202, N-(3-Chloro-4,5-difluorophenyl)-1,3-dimethyl-4-{[(1R)-2,2,2-trifluoro-1-methylethyl]sulfamoyl}-1H-pyrrole-2-carboxamide]	30	20	> 25
Cc1cc(NC(=O)c2cc(S(=O)(=O)NC3(C)COC3)c(C)n2C)ccc1F [Compound 89, N-(4-Fluoro-3-methylphenyl)-1,5-dimethyl-4-[(3-methyloxetan-3-yl)sulfamoyl]-1H-pyrrole-2-carboxamide]	20	20	> 25
[2H]C([2H])([2H])C(NS(=O)(=O)c1cc(C(=O)Nc2ccc(F)c(C)c2)n(C)c1)(C([2H])([2H])[2H])C([2H])([2H])[2H] [Compound 69, N-(4-fluoro-3-methyl-phenyl)-1-methyl-4-[[2,2,2-trideuterio-1,1-bis(trideuteriomethyl)ethyl]sulfamoyl]pyrrole-2-carboxamide]	30	70	> 25
C[C@@H](NS(=O)(=O)c1cn(C)c(C(=O)Nc2ccc(F)c(C#N)c2F)c1Cl)C(F)(F)F [Compound 276, 3-chloro-N-(3-cyano-2,4-difluoro-phenyl)-1-methyl-4-[[(1R)-2,2,2-trifluoro-1-methyl-ethyl]sulfamoyl]pyrrole-2-carboxamide]	10	10	> 25
Cn1cc(S(=O)(=O)NC2(C)COC2)cc1C(=O)Nc1cc(F)cc(C#N)c1 [Compound 54, N-(3-cyano-5-fluoro-phenyl)-1-methyl-4-[(3-methyloxetan-3-yl)-sulfamoyl]pyrrole-2-carboxamide]	200	250	> 25
C[C@H](NS(=O)(=O)c1cc(C(=O)Nc2ccc(F)c(C#N)c2)n(C)c1)C(C)(F)F [Compound 297, N-(3-cyano-4-fluoro-phenyl)-4-[[(1S)-2,2-difluoro-1-methyl-propyl]sulfamoyl]-1-methyl-pyrrole-2-carboxamide]	40	90	22.6
Cn1cc(S(=O)(=O)NC2(C)COC2)c(Cl)c1C(=O)Nc1ccc(F)c(C#N)c1 [Compound 306, 3-chloro-N-(3-cyano-4-fluoro-phenyl)-1-methyl-4-[(3-methyloxetan-3-yl)sulfamoyl]-pyrrole-2-carboxamide]	30	60	> 25
Cn1cc(S(=O)(=O)NC2(C(F)(F)F)CCC2)cc1C(=O)Nc1ccc(F)c(Cl)c1F [Compound 263, N-(3-chloro-2,4-difluoro-phenyl)-1-methyl-4-{[1-(trifluoromethyl)-cyclobutyl]sulfamoyl}-1H-pyrrole-2-carboxamide]	5	8	> 25
Cn1cc(S(=O)(=O)NC(C)(C)C)cc1C(=O)Nc1cc(F)c(F)c(F)c1 [Compound 68, 4-(tert-butylsulfamoyl)-1-methyl-N-(3,4,5-trifluorophenyl)pyrrole-2-carboxamide]	70	70	> 25
CC(C)NS(=O)(=O)c1cc(C(=O)Nc2cc(F)c(F)c(C#N)c2)n(C)c1 [Compound 52, N-(3-cyano-4,5-difluoro-phenyl)-4-(isopropylsulfamoyl)-1-methyl-pyrrole-2-carboxamide]	260	330	> 25
Cn1cc(S(=O)(=O)NC2(C)CCOC2)cc1C(=O)Nc1ccc(F)c(F)c1 (stereo not drawn) [Compound 91, N-(3,4-Difluorophenyl)-1-methyl-4-[(3-methyltetrahydrofuran-3-yl)sulfamoyl]-1H-pyrrole-2-carboxamide]	60	40	> 25
Cc1cc(NC(=O)c2c(C)c(S(=O)(=O)NC3(C)COC3)cn2C)ccc1F [Compound 90, N-(4-Fluoro-3-methylphenyl)-1,3-dimethyl-4-[(3-methyloxetan-3-yl)sulfamoyl]-1H-pyrrole-2-carboxamide]	50	30	> 25
CC(C)NS(=O)(=O)c1cn(C)c(C(=O)Nc2ccc(F)c(F)c2F)c1F [Compound 233, 3-Fluoro-1-methyl-4-[(1-methylethyl)sulfamoyl]-N-(2,3,4-trifluorophenyl)-1H-pyrrole-2-carboxamide]	90	160	> 25
Cn1cc(S(=O)(=O)NCC(F)(F)F)cc1C(=O)Nc1ccc(F)c(F)c1 [Compound 132, N-(3,4-Difluorophenyl)-1-methyl-4-[(2,2,2-trifluoroethyl)sulfamoyl]-1H-pyrrole-2-carboxamide]	80	70	> 25
CC(NS(=O)(=O)c1cc(C(=O)Nc2ccc(F)c(Cl)c2F)n(C)c1)C(F)F (stereo not drawn) [Compound 252, N-(3-chloro-2,4-difluoro-phenyl)-4-[(2,2-difluoro-1-methyl-ethyl)sulfamoyl]-1-methyl-1H-pyrrole-2-carboxamide]	50	80	> 25
C[C@@H](NS(=O)(=O)c1cc(C(=O)Nc2cccc(C#N)c2)n(C)c1)C(F)(F)F [Compound 158, N-(3-Cyanophenyl)-1-methyl-4-{[(1R)-2,2,2-trifluoro-1-methylethyl]-sulfamoyl}-1H-pyrrole-2-carboxamide]	120	360	> 25
Cc1cc(NC(=O)c2cc(S(=O)(=O)NC3(C)COC3)cn2C)cc(C(F)(F)F)c1 [Compound 82, 1-Methyl-4-[(3-methyloxetan-3-yl)sulfamoyl]-N-[3-methyl-5-(trifluoro-methyl)phenyl]-1H-pyrrole-2-carboxamide]	170	490	> 25
Cn1cc(S(=O)(=O)NC2(C(F)(F)F)CCOC2)cc1C(=O)Nc1ccc(F)c(C#N)c1 (single isomer, unassigned) [Compound 228a, N-(3-Cyano-4-fluorophenyl)-1-methyl-4-{[3-(trifluoromethyl)tetrahydrofuran-3-yl]sulfamoyl}-1H-pyrrole-2-carboxamide]	30	30	> 25
Cc1c(F)ccc(NC(=O)c2cc(S(=O)(=O)NC(C)(C)C)cn2C)c1F [Compound 112, 4-(tert-butylsulfamoyl)-N-(2,4-difluoro-3-methyl-phenyl)-1-methyl-pyrrole-2-carboxamide]	60	90	> 25
Cc1cc(NC(=O)c2c(C)c(S(=O)(=O)NC3(C)COC3)c(C)n2C)ccc1F [Compound 88, N-(4-Fluoro-3-methylphenyl)-1,3,5-trimethyl-4-[(3-methyloxetan-3-yl)sulfamoyl]-1H-pyrrole-2-carboxamide]	20	30	> 25
C[C@@H](NS(=O)(=O)c1cn(C)c(C(=O)Nc2ccc(F)c(F)c2)c1Cl)C(F)(F)F [Compound 217, 3-Chloro-N-(3,4-difluorophenyl)-1-methyl-4-{[(1R)-2,2,2-trifluoro-1-methylethyl]sulfamoyl}-1H-pyrrole-2-carboxamide]	5	5	> 25
